Assay results published in patent US11203613B2, “Peptidomimetic proteasome inhibitors” (CORNELL UNIVERSITY, priority 2017, dated 2021).
pIC50: −log10 of the molar value. “And” between values parts separate entries of the source, which are not always exact repeats. Equal entries are not always repeated. Where two headings read alike, the source gives them in different places.

Target: Human Constitutive (Hu C-20S) β5 Active Subunit (Homo sapiens, UniProt P28074)
Assay: IC50 determination, human constitutive 20S proteasome β5c (suc-LLVY-AMC hydrolysis)
Assay type: biochemical
[1] = Table 3, IC50 against human constitutive β5 active subunit, read-out: Hu-C20S β5
[2] = Table 2, several values in a cell are repeat determinations, read-out: Hu c-20S IC50

SMILES	pIC50 [1]	pIC50 [2]
Cc1ccc(S(=O)(=O)N[C@@H](CCC(=O)NC(C)(C)C)C(=O)NC2(c3nc4c(F)cccc4[nH]3)CC2)cc1 [CEN-70, (S)—N^5-(tert-Butyl)-N^1-(1-(4-fluoro-1H-benzo[d]Imidazol-2-yl)cyclopropyl)-2-((4-methylphenyl)sulfonamido)pentanediamide]	< 4.00	
CC(C)CCC(=O)N[C@@H](CC(=O)N1CCCC[C@@H]1C(F)(F)F)C(=O)N[C@@H](C)c1ncc(-c2ccc(F)cc2F)[nH]1 [CEN-111, N—((S)-1-(((S)-1-(5-(2,4-Difluorophenyl)-1H-imidazol-2-yl)ethyl)amino)-1,4-dioxo-4-((R)-2-(trifluoromethyl)piperidin-1-yl)butan-2-yl)-4-methylpentanamide]	5.31	
CC[C@H]1CCCCN1C(=O)C[C@H](NC(=O)c1cnc(C)s1)C(=O)N[C@@H](C)c1nc2c(F)cccc2[nH]1 [CEN-18, N—((S)-4-((S)-2-Ethylpiperidin-1-yl)-1-(((S)-1-(4-fluoro-1H-benzo[d]imidazol-2-yl)ethyl)amino)-1,4-dioxobutan-2-yl)-2-methylthiazole-5-carboxamide]	5.02	
CC[C@H]1CCCCN1C(=O)C[C@H](NC(=O)OCC(C)C)C(=O)N[C@@H](C)c1nc2c(F)cccc2[nH]1 [CEN-5, Isobutyl ((S)-4-((S)-2-Ethylpiperidin-1-yl)-1-(((S)-1-(4-fluoro-1H-benzo[d]imidazol-2-yl)ethyl)amino)-1,4-dioxobutan-2-yl)carbamate]	5.60	
CC[C@H]1CCCCN1C(=O)C[C@H](Nc1nc2ccc(C)cc2o1)C(=O)N[C@@H](C)c1nc2c(F)cccc2[nH]1 [CEN-19, (S)-4-((S)-2-Ethylpiperidin-1-yl)-N—((S)-1-(4-fluoro-1H-benzo[d]imidazol-2-yl)ethyl)-2-((6-methylbenzo[d]oxazol-2-yl)amino)-4-oxobutanamide]	5.96	
Cc1cc(C(=O)N[C@@H](CC(=O)N2CCC[C@@H]2c2ccccc2)C(=O)NC(C)c2nc3ccccc3[nH]2)no1 (stereo partly drawn) [CEN-52, N-((2S)-1-((1-(1H-Benzo[d]imidazol-2-yl)ethyl)amino)-1,4-dioxo-4-((R)-2-phenylpyrrolidin-1-yl)butan-2-yl)-5-methylisoxazole-3-carboxamide]	5.12	
CC[C@H]1CCCCN1C(=O)C[C@H](NC(=O)CCc1ccccc1)C(=O)N[C@@H](C)c1nc2c(F)cccc2[nH]1 [CEN-20, (S)-4-((S)-2-Ethylpiperidin-1-yl)-N—((S)-1-(4-fluoro-1H-benzo[d]imidazol-2-yl)ethyl)-4-oxo-2-(3-phenylpropanamido)butanamide]	5.59	
C[C@H](NC(=O)[C@H](CC(=O)N1CCCC1)NC(=O)CCC(C)(C)C)c1ncc(-c2ccc(F)cc2F)[nH]1 [CEN-83, N—((S)-1-(((S)-1-(5-(2,4-Difluorophenyl)-1H-imidazol-2-yl)ethyl)amino)-1,4-dioxo-4-(pyrrolidin-1-yl)butan-2-yl)-4,4-dimethylpentanamide]	4.99	
CC(C)CCC(=O)N[C@@H](CC(=O)N1CCOC[C@@H]1C)C(=O)N[C@@H](C)c1ncc(-c2ccc(F)cc2F)[nH]1 [CEN-92, N—((S)-1-(((S)-1-(5-(2,4-Difluorophenyl)-1H-imidazol-2-yl)ethyl)amino)-4-((S)-3-methylmorpholino)-1,4-dioxobutan-2-yl)-4-methylpentanamide]	4.82	
Cc1ncc(C(=O)N[C@@H](CC(=O)N2CCCC[C@@H]2C)C(=O)N[C@@H](C)c2ncc(-c3ccc(F)cc3F)[nH]2)s1 [CEN-105, N—((S)-1-(((S)-1-(5-(2,4-Difluorophenyl)-1H-imidazol-2-yl)ethyl)amino)-4-((S)-2-methylpiperidin-1-yl)-1,4-dioxobutan-2-yl)-2-methylthiazole-5-carboxamide]	5.41	
CC[C@H]1CCCCN1C(=O)C[C@H](NC(=O)NCc1ccccc1)C(=O)N[C@@H](C)c1nc2c(F)cccc2[nH]1 [CEN-21, (S)-2-(3-Benzylureido)-4-((S)-2-ethylpiperidin-1-yl)-N—((S)-1-(4-fluoro-1H-benzo[d]imidazol-2-yl)ethyl)-4-oxobutanamide]	5.03	
C[C@H](NC(=O)[C@H](CC(=O)N1CCC[C@H]1c1ccccc1)NC(=O)C1CC2(COC2)C1)c1nc2cccc(F)c2[nH]1 [CEN-63, N—((S)-1-(((S)-1-(7-Fluoro-1H-benzo[d]imidazol-2-yl)ethyl)amino)-1,4-dioxo-4-((S)-2-phenylpyrrolidin-1-yl)butan-2-yl)-2-oxaspiro[3.3]heptane-6-carboxamide]	5.17	
Cc1ccc(S(=O)(=O)N[C@@H](CC(=O)N2CCCC[C@@H]2C)C(=O)N[C@@H](C)c2ncc(-c3ccc(F)cc3F)[nH]2)cc1 [CEN-113, (S)—N—((S)-1-(5-(2,4-Difluorophenyl)-1H-imidazol-2-yl)ethyl)-2-((4-methylphenyl)sulfonamido)-4-((S)-2-methylpiperidin-1-yl)-4-oxobutanamide]	5.19	
C[C@H](NC(=O)[C@@H](NC(=O)CCc1ccc(F)cc1)[C@@H](C)O)c1nc2c(F)cccc2[nH]1 [CEN-72, (2S,3R)—N—((S)-1-(4-Fluoro-1H-benzo[d]imidazol-2-yl)ethyl)-2-(3-(4-fluorophenyl)propanamido)-3-hydroxybutanamide]	< 4.00	
C[C@H](NC(=O)[C@H](CC(=O)N1CCCC1)NC(=O)CCc1ccccc1)C(=O)NCc1cccc2cc[nH]c12 [CF-503293]		5.39 and 4.94 and 4.72 and 4.44
CC[C@H]1CCCCN1C(=O)C[C@H](NC(=O)CCC(C)(C)C)C(=O)N[C@@H](C)c1nc2ccccc2[nH]1 [CEN-29, N—((S)-1-(((S)-1-(1H-Benzo[d]imidazol-2-yl)ethyl)amino)-4-((S)-2-ethylpiperidin-1-yl)-1,4-dioxobutan-2-yl)-4,4-dimethylpentanamide]	5.16	
CC[C@H]1CCCCN1C(=O)C[C@H](NC(=O)N(C)Cc1ccccc1)C(=O)N[C@@H](C)c1nc2c(F)cccc2[nH]1 [CEN-26, (S)-2-(3-Benzyl-3-methylureido)-4-((S)-2-ethylpiperidin-1-yl)-N—((S)-1-(4-fluoro-1H-benzo[d]imidazol-2-yl)ethyl)-4-oxobutanamide]	5.48	
C[C@@H](NC(=O)[C@H](CC(=O)N1CCCC[C@@H]1C)NC(=O)CC1CC(C)(C)C1)c1nc2c(F)cccc2[nH]1 [CEN-44, (S)-2-(2-(3,3-Dimethylcyclobutyl)acetamido)-N—((R)-1-(4-fluoro-1H-benzo[d]imidazol-2-yl)ethyl)-4-((S)-2-methylpiperidin-1-yl)-4-oxobutanamide]	6.05	
CC(C)CCC(=O)N[C@@H](CC(=O)N1CCCC[C@@H]1C)C(=O)N[C@@H](C)c1nc2ccccc2[nH]1 [CEN-32, N—((S)-1-(((S)-1-(1H-Benzo[d]imidazol-2-yl)ethyl)amino)-4-((S)-2-methylpiperidin-1-yl)-1,4-dioxobutan-2-yl)-4-methylpentanamide]	4.63	
C[C@H](NC(=O)[C@H](CC(=O)N1CCC[C@@H]1c1ccccc1)Nc1nc2ccccc2o1)c1ncc(-c2ccccc2F)[nH]1 [CEN-125, (S)-2-(benzo[d]oxazol-2-ylamino)-N—((S)-1-(5-(2-fluorophenyl)-1H-imidazol-2-yl)ethyl)-4-oxo-4-((R)-2-phenylpyrrolidin-1-yl)butanamide]	4.69	
C[C@H](NC(=O)[C@H](CC(=O)N1CCC[C@@H]1C)NC(=O)CCC(C)(C)C)c1nc2ccccc2[nH]1 [CEN-33, N—((S)-1-(((S)-1-(1H-Benzo[d]imidazol-2-yl)ethyl)amino)-4-((S)-2-methylpyrrolidin-1-yl)-1,4-dioxobutan-2-yl)-4,4-dimethylpentanamide]	4.78	
C[C@H](NC(=O)[C@H](CC(=O)N1CCCC1C1CC1)NC(=O)C1CC2(COC2)C1)c1nc2cccc(F)c2[nH]1 (stereo partly drawn) [CEN-51, N-((2S)-4-(2-Cyclopropylpyrrolidin-1-yl)-1-(((S)-1-(7-fluoro-1H-benzo[d]imidazol-2-yl)ethyl)amino)-1,4-dioxobutan-2-yl)-2-oxaspiro[3.3]heptane-6-carboxamide]	4.82	
CC[C@H]1CCCCN1C(=O)C[C@H](N)C(=O)N[C@@H](C)c1nc2c(F)cccc2[nH]1 [CEN-1, (S)-2-Amino-4-((S)-2-ethylpiperidin-1-yl)-N—((S)-1-(4-fluoro-1H-benzo[d]imidazol-2-yl)ethyl)-4-oxobutanamide]	4.85	
C[C@H](NC(=O)[C@H](CC(=O)N1CCCC1C1CC1)NC(=O)C1CC2(C1)CC(F)(F)C2)c1nc2cccc(F)c2[nH]1 (stereo partly drawn) [CEN-61, N-((2S)-4-(2-Cyclopropylpyrrolidin-1-yl)-1-(((S)-1-(7-fluoro-1H-benzo[d]imidazol-2-yl)ethyl)amino)-1,4-dioxobutan-2-yl)-6,6-difluorospiro[3.3]heptane-2-carboxamide]	5.06	
CCC1CCCCN1C(=O)CC(NC(=O)CCC(C)C)C(=O)NC1CCCC1c1ncc(-c2ccc(F)cc2F)[nH]1 (centres unmarked) [CF-503292]		5.31 and 5.03 and 5.09 and 5.07
CC(C)C1CC1C(=O)N[C@@H](CC(=O)N1CCCC[C@@H]1C)C(=O)N[C@@H](C)c1ncc(-c2ccc(F)cc2F)[nH]1 (stereo partly drawn) [CEN-97, N—((S)-1-(((S)-1-(5-(2,4-Difluorophenyl)-1H-imidazol-2-yl)ethyl)amino)-4-((S)-2-methylpiperidin-1-yl)-1,4-dioxobutan-2-yl)-2-isopropylcyclopropane-1-carboxamide]	5.32	
C[C@H](NC(=O)[C@H](CC(=O)N1CCC[C@@H]1C)NC(=O)CCC(C)(C)C)c1ncc(-c2ccc(F)cc2F)[nH]1 [CEN-89, N—((S)-1-(((S)-1-(5-(2,4-Difluorophenyl)-1H-imidazol-2-yl)ethyl)amino)-4-((S)-2-methylpyrrolidin-1-yl)-1,4-dioxobutan-2-yl)-4,4-dimethylpentanamide]	5.24	
C[C@H](NC(=O)[C@H](CC(=O)N1CCCC[C@@H]1C)NS(=O)(=O)c1ccccc1)c1ncc(-c2ccc(F)cc2F)[nH]1 [CEN-110, (S)—N—((S)-1-(5-(2,4-Difluorophenyl)-1H-imidazol-2-yl)ethyl)-4-((S)-2-methylpiperidin-1-yl)-4-oxo-2-(phenylsulfonamido)butanamide]	5.09	
C[C@H](NC(=O)N(CC(=O)N1CCCC[C@@H]1C)NC(=O)CCC(C)(C)C)c1ncc(-c2ccc(F)cc2F)[nH]1 [CEN-101, N—((S)-1-(5-(2,4-Difluorophenyl)-1H-imidazol-2-yl)ethyl)-2-(4,4-dimethylpentanoyl)-1-(2-((S)-2-methylpiperidin-1-yl)-2-oxoethyl)hydrazine-1-carboxamide]	5.12	
